The test system of one experiment is SS cells. The experiment in a line: Antisickling study with SS cells under hypoxia (2.5% O2). Format: cell-based, human. As to conditions: 20% hematocrit, […] O2, 37 °C. As to the method: For our previously studied compounds (e.g., INN-312, TD-7, SAJ-310, INN-298) that incorporate methoxyPy substitution to vanillin analogs, we observed a significant increase in functional and biological activity as a result of increased protein interactions[31],[33],[35],[36]. We therefore expected similar effects for VZHE-039, which we tested by following VZHE-039 activity (measured by Hb adduct formation, P50-shift and RBC sickling inhibition) using SS blood. Briefly, we incubated 0.5, 1, and 2 mM concentrations of VZHE-039 with whole blood suspensions from subjects with homozygous SCD (Hct of 20%) under hypoxic conditions (2.5% O2/97.5% N2) at 37 °C for 2 h for expected peak adduct. Aliquot blood samples were drawn into a fixative (2% glutaraldehyde solution), and sickling was assessed by microscopy[31],[33],[35],[36]. Aliquot samples were also subjected to cation-exchange HPLC analyses to assess the degree of Hb modification to the high-affinity adduct form (Hb adduct formation), as well as standard O2 equilibrium curves (OEC) to assess P50-shifts using hemox analyzer[31],[33],[35],[36]. […] The improved potency of Voxelotor has been attributed to reduced binding stoichiometry, i.e. while Voxelotor binds Hb at a 1:1 ratio, VZHE-039 binds Hb at a 2:1 ratio. […] This observation, as will be discussed later is likely due to a meaningful contribution from the novel O2-independent antisickling activity as result of the strong contact with the αF-helix.
The effect of VZHE-039 on RBC sickling, Hb modification, and Hb oxygen equilibrium was studied utilizing samples from consented individuals with homozygous SCD following previous procedure. Briefly, blood suspended in Hemox buffer and supplemented with glucose and bovine serum albumin, to a final hematocrit of 20% were incubated under air in the absence or presence of 0.5 mM, 1 mM and 2 mM VZHE-039 at 37 °C for 1 h. This was followed by incubating the suspensions under hypoxic conditions (2.5% O2/97.5% N2) at 37 °C for 2 h. Aliquot samples were obtained and fixed with 2% glutaraldehyde solution without exposure to air, and then subjected to microscopic morphological analysis of bright field images (at × 40 magnification) of single layer cells on an Olympus BX40 microscope fitted with an Infinity 2 camera (Olympus), and the coupled Image Capture software. Leftover samples were washed in phosphate-buffer saline, and hemolyzed in hypotonic lysis buffer for subsequent Hb-modification and oxygen equilibrium analyses.

A further experiment addresses T1, CYP2B6 (Homo sapiens, UniProt P20813).
T1 construct: 0.2–0.5 mg/mL pooled human liver microsomes; from tissue; host or cells: pooled human liver microsomes
T1 sequence (P20813 1-491): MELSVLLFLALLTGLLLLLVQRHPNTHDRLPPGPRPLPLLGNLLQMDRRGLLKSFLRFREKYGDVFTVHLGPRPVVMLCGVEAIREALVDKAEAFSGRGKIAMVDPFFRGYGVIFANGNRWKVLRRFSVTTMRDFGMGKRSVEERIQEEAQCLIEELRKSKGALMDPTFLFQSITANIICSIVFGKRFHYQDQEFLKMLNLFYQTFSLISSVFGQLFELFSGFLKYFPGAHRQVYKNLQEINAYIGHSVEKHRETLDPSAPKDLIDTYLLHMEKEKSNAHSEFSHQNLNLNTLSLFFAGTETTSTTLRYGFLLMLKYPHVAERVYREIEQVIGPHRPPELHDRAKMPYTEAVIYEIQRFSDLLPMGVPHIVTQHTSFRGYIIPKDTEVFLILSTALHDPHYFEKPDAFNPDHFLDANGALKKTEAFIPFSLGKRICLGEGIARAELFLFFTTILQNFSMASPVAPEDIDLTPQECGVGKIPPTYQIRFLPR
The experiment in a line: In vitro CYP inhibition, pooled human liver microsomes. Format: in vitro ADME. Particulars: substrate Bupropion. As to the method:
(§1) Next, we tested VZHE-039 at concentrations of 0.1 to 100 µM, considered to be biologically relevant unbound plasma concentrations, for possible CYP inhibition using pooled human liver microsomes and isozyme-specific probe substrates (CYP1A2, CYP2C8, CYP2C9, CYP2C19, CYP2D6, CYP3A4, CYP2B6)[55].
(§2) VZHE-039 was studied for its inhibitory potential of seven major drug metabolizing human cytochrome P450 (CYP) enzymes (CYP1A2, CYP2C8, CYP2C9, CYP2C19, CYP2D6, CYP3A4, CYP2B6) using pooled human liver microsomes as published previously[26],[55]. The probe substrates include tacrine (CYP1A2), amodiaquine (CYP2C8), tolbutamide (CYP2C9), mephenytoin (CYP2C19), dextromethorphan (CYP2D6), midazolam (CYP3A4), testosterone (CYP3A4), and bupropion (CYP2B6). […] Assay conditions were optimized for each human cytochrome P450 substrate. The optimized reaction mixtures (200 μL) contained a final concentration of 0.2–0.5 mg/mL pooled human liver microsomes, 2 mM NADPH in 100 mM potassium phosphate, pH 7.4 buffer with 5 mM MgCl2, and VZHE-039 concentration of 0.1 to 100 µM. The assays were performed in duplicate in 96-well plates at 37 °C for 10–60 min. The reaction was terminated with addition of methanol, followed by incubation at 4 °C for 10 min and centrifuged at 4 °C for 10 min. Effect of VZHE-039 on formation of the respective probe substrate metabolites (velnacrine, N‐desethylamodiaquine, 4-hydroxytolbutamide, 4′-hydroxymephenytoin, dextrophan, 1′-hydroxymidazolam, and 6β-hydroxtestosterone and hydroxybupropion) were determined using LC–MS/MS.

The target of another experiment is T2, CYP2C8 (Homo sapiens, UniProt P10632).
T2 construct: 0.2–0.5 mg/mL pooled human liver microsomes; from tissue; host or cells: pooled human liver microsomes
T2 sequence (P10632 1-490): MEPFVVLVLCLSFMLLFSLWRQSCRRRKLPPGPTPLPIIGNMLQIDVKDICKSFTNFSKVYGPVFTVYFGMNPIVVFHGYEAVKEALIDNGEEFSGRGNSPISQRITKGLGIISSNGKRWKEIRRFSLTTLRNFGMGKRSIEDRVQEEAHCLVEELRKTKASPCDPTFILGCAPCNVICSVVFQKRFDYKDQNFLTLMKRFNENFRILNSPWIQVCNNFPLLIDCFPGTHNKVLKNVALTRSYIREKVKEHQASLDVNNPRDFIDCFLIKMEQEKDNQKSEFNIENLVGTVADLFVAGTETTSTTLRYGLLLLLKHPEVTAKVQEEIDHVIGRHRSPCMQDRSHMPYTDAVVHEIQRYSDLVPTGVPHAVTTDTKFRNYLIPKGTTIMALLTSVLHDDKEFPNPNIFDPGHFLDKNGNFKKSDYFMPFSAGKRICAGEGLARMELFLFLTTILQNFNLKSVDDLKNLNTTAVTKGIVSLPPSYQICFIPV
Described as above. Format: in vitro ADME. Particulars: substrate Amodiaquine. As to the method: as §1, §2

Some results are limits rather than exact numbers.

Regarding `O=Cc1c(O)cccc1OCc1cccc(CO)n1` [VZHE-039, 2-((6-(Hydroxymethyl)pyridin-2-yl)methoxy)-6-hydroxybenzaldehyde], the “Sickling Inhibition” value with SS cells (0.5 mM) is recorded as 34.5 ± 2.4%; with SS cells (1 mM) it was 63.7 ± 6.9%; with SS cells (2 mM) it was 92.8 ± 5.5%. Moreover, the inhibition at 500 µM in the experiment with SS cells (Homo sapiens, 0.5 mM, read-out: Sickling Inhibition) came to 35%. Moreover, the inhibition at 1000 µM with SS cells (Homo sapiens, 1 mM, read-out: Sickling Inhibition) is 63%. Besides, the inhibition at 2000 µM with SS cells (Homo sapiens, 2 mM, read-out: Sickling Inhibition) was found to be 93%. For the same molecule, the half-inhibitory concentration (IC50) on CYP2B6 was 41.4 µM; against CYP2C8, more than 100 µM.
